Experimental data: patent US20250268248A1 (priority 2022, published 2025)

How the values were obtained:
MRSA [1] = test: MIC determination by serial dilution in LB broth; format: cell-based, methicillin-resistant Staphylococcus aureus (ATCC 43300); conditions: Staphylococcus aureus, read-out: MIC MRSA
Source text: (§1) • Menthol, Guangdong Huaqingyuan Biotechnology Co., Ltd. • Thymol, Guangdong Huaqingyuan Biotechnology Co., Ltd. • Bromoisobutyryl bromide (BiBB), Aldrich • CuBr, Aldrich • N,N,N′,N″,N″-pentamethyldiethylenetriamine (PMDETA), Aldrich • 2-(N,N-dimethylamino)ethyl methacrylate (DMAEMA), Aldrich • Gram-positive 2 bacteria (S. aureus, ATCC 25923), China Center of Industrial Culture, commercially available from Guangdong Huankai Microbial Sci.&Tech. Co., Ltd., Guangdong, China • methicillin-resistant Staphylococcus aureus (ATCC 43300), China Center of Industrial Culture, commercially available from Guangdong Huankai Microbial Sci.&Tech. Co., Ltd., Guangdong, China • Gram-negative bacteria (E. coli, ATCC 43894), China Center of Industrial Culture, commercially available from Guangdong Huankai Microbial Sci.&Tech. Co., Ltd., Guangdong, China.
MIC (minimum inhibitory concentration) was used as an effective qualitative method of antibacterial ability assessment. MIC of antibacterial polymers were determined against S. aureus and E. coli by a serial dilution method. Bacteria LB agar plates were prepared from glycerol stock. Bacteria were inoculated with LB broth in an inoculation shaker at 200 rpm and 37° C., overnight. […] MIC was determined with no visible growth at 600 nm by spectrophotometer. […]

E. coli [2] = test: microbe, parasite or virus in culture; format: cell-based, E. coli (ATCC 43894); conditions: Escherichia coli, 24 h, read-out: MIC E. coli
Source text: as §1
(§2) MIC (minimum inhibitory concentration) was used as an effective qualitative method of antibacterial ability assessment. MIC of antibacterial polymers were determined against S. aureus and E. coli by a serial dilution method. Bacteria LB agar plates were prepared from glycerol stock. Bacteria were inoculated with LB broth in an inoculation shaker at 200 rpm and 37° C., overnight.

MRSA [3] = test: MBC determination; format: cell-based, methicillin-resistant Staphylococcus aureus (ATCC 43300); conditions: Staphylococcus aureus, read-out: MBC MRSA
Source text: as §1
(§3) The MBC was defined as the lowest concentration of an antibacterial agent that kills bacteria in the planktonic culture. MBC of antibacterial polymers and control were determined against S. aureus and E. coli by the reported method in publication “Antibacterial and Bacterially Antiadhesive Cotton Fabrics Coated by Cationic Fluorinated Polymers. ACS Appl Mater Interfaces 2018, 10 (7), 6124-6136.”

S. aureus [4] = test: MBC determination; format: cell-based, S. aureus (ATCC 25923); conditions: Staphylococcus aureus; Table 5
Source text: as §1, §3

S. aureus [5] = test: MIC determination by serial dilution in LB broth; format: cell-based, S. aureus (ATCC 25923); conditions: Staphylococcus aureus, Table 5, 24 h, 37° C.
Source text: as §1, §2

E. coli [6] = test: MBC determination; format: cell-based, E. coli (ATCC 43894); conditions: Escherichia coli, read-out: MBC E. coli
Source text: as §1, §3

Cc1ccc(C(C)C)c(O)c1 [Thymol]
250 µg/mL: MIC (MRSA [1]) | MIC (E. coli [2]) | MBC (MRSA [3]) | MBC (S. aureus [4]) | MIC (S. aureus [5]) | MBC (E. coli [6])
